Tests used:
[1] = system: Human alphaherpesvirus 1; assay: Antiviral activity against 1000 PFU/ml infectious dose of HSV1 strain F infected in african green monkey Vero cells after 72 hrs by plaque reduction assay; format: functional, organism-based; details: Human alphaherpesvirus 1, strain F
[2] = system: Human alphaherpesvirus 1; assay: Antiviral activity against 1000 PFU/ml infectious dose of HSV1 strain F infected in african green monkey Vero cells assessed as inhibition of virus in post-viral entry step at 5.89 uM after 72 hrs by plaque reduction assay; format: functional; set-up: scale not given: the % may be the effect or the level left
[3] = system: Human alphaherpesvirus 1; assay: Antiviral activity against 1000 PFU/ml infectious dose of HSV1 strain F infected in african green monkey Vero cells assessed as inhibition of virus in pre-viral entry step at 5.89 uM after 72 hrs by plaque reduction assay; format: functional; set-up: scale not given: the % may be the effect or the level left
[4] = Cytotoxicity against african green monkey Vero cells after 72 hrs; format: cell-based; details: chlorocebus sabaeus, read-out: MNCC
[5] = system: Human alphaherpesvirus 1; assay: Antiviral activity against 1000 PFU/ml infectious dose of HSV1 strain F infected in african green monkey Vero cells assessed as inhibition of virus in pre-viral entry step at 6.21 uM after 72 hrs by plaque reduction assay; format: functional; set-up: scale not given: the % may be the effect or the level left
[6] = system: Human alphaherpesvirus 1; assay: Antiviral activity against 1000 PFU/ml infectious dose of HSV1 strain F infected in african green monkey Vero cells assessed as inhibition of virus in post-viral entry step at 6.21 uM after 72 hrs by plaque reduction assay; format: functional; set-up: scale not given: the % may be the effect or the level left

Structure (SMILES)	IC50 [1]	Activity [2]	Activity [3]	MNTC at 72 h [4]	Activity [5]	Activity [6]
C=Cc1c(C)c2cc3nc(c4c5[nH]c(cc6nc(cc1[nH]2)C(C=O)=C6CC)c(C)c5C(=O)[C@@]4(O)C(=O)OC)[C@@H](CCC(=O)O/C=C(\C)CCCC(C)CCCC(C)CCCC(C)C)[C@@H]3C (some centres not stated) [13(2)-HYDROXY-(13(2)-R)-PHAEOPHYTIN B]	1.96 nM	30%	100%	5.89 µM	–	–
C=Cc1c(C)c2cc3nc(c4c5[nH]c(cc6nc(cc1[nH]2)C(C)=C6CC)c(C)c5C(=O)[C@]4(O)C(=O)OC)[C@@H](CCC(=O)O/C=C(\C)CCCC(C)CCCC(C)CCCC(C)C)[C@@H]3C (some centres not stated)	3.11 nM	–	–	6.21 µM	100%	30%
C=Cc1c(C)c2cc3nc(c4c5[nH]c(cc6nc(cc1[nH]2)C(C)=C6CC)c(C)c5C(=O)[C@@]4(O)C(=O)OC)[C@@H](CCC(=O)O/C=C(\C)CCCC(C)CCCC(C)CCCC(C)C)[C@@H]3C (some centres not stated)	3.11 nM	–	–	6.21 µM	100%	30%
